From PubChem BioAssay (NCI)
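1) Cells in 96-well plates. 2) Compound, 48 h, 5 concentrations. 3) Linear interpolation between surrounding doses. 4) Unreached endpoint = highest concentration. GI50: concentration for 50% inhibition of growth. At the TGI there is no net growth.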

Columns and labels:
Assay in all cases: inhibition of tumour cell growth, NCI panel, 48 h
MOLT-4 leukemia = system: MOLT-4 leukemia
MALME-3M melanoma = system: MALME-3M melanoma
HCT-15 colon = system: HCT-15 colon
ACHN renal = system: ACHN renal
SK-MEL-28 melanoma = system: SK-MEL-28 melanoma
SF-295 CNS = system: SF-295 CNS
SK-MEL-2 melanoma = system: SK-MEL-2 melanoma
T-47D breast = system: T-47D breast
NCI-H23 lung = system: NCI-H23 lung
SK-MEL-5 melanoma = system: SK-MEL-5 melanoma

Row | Structure (SMILES) | GI50 (MOLT-4 leukemia) [µM] | TGI (MOLT-4 leukemia) [µM] | GI50 (MALME-3M melanoma) [µM] | TGI (MALME-3M melanoma) [µM] | GI50 (HCT-15 colon) [µM] | TGI (HCT-15 colon) [µM] | GI50 (ACHN renal) [µM] | TGI (ACHN renal) [µM] | GI50 (SK-MEL-28 melanoma) [µM] | TGI (SK-MEL-28 melanoma) [µM] | GI50 (SF-295 CNS) [µM] | TGI (SF-295 CNS) [µM] | GI50 (SK-MEL-2 melanoma) [µM] | TGI (SK-MEL-2 melanoma) [µM] | GI50 (T-47D breast) [µM] | TGI (T-47D breast) [µM] | GI50 (NCI-H23 lung) [µM] | TGI (NCI-H23 lung) [µM] | GI50 (SK-MEL-5 melanoma) [µM] | TGI (SK-MEL-5 melanoma) [µM]
1 | C[C@H]1COCCN1c1nc(-c2cnc(N)cc2C(F)F)nc(N2CCOCC2)n1 | 0.225 | 33 | 0.104 | 0.721 | 0.183 | > 100 | 0.207 | > 100 | 0.115 | 0.994 | 0.119 | 0.645 | 0.232 | 1.12 | 0.0269 | 0.181 | 0.274 | > 100 | 0.15 | 0.651
2 | c1cc(C2CCCCC2)ccc1-c1cnc2nonc2n1 | 0.393 | > 56.5 | 1.18 | 2.66 | 0.438 | 2.26 | 1.14 | 2.39 | 1.36 | 2.99 | 1.64 | 4.32 | 1.31 | 3.62 | 0.631 | 2.78 | 1.37 | 4.02 | 1.29 | 2.62
3 | COc1c(B(O)O)cccc1-c1nc2ccc3[nH]ncc3c2c2c1CCCC2 | 1.57 | > 34.6 | 3.39 | 6.86 | 2.88 | 14.2 | 1.77 | 16.8 | 3.42 | 10.2 | 1.89 | 12.6 | 3.4 | 8.78 | 3.36 | > 37.7 | 2.48 | 9.28 | 3.18 | 12.5
4 | O=C(N/N=C/c1cc(Cl)ccc1O)c1ccccc1Nc1ccnc(C(F)(F)F)c1 | 0.241 | 6.27 | 0.839 | 5.29 | 0.152 | 13.6 | 0.3 | 11.2 | 0.389 | 15.1 | 0.613 | 13.2 | 2.71 | 19.9 | 0.633 | 9.62 | 1.31 | 16.3 | 0.57 | 5.33
5 | C=C(C)C1CCC2=CC(CC3(C)OC3C3=CC(C(=O)OC)=C(C1)O3)OC2=O (stereo not given) |  | > 100 |  | > 100 |  | > 100 |  | > 100 |  | > 100 |  | > 100 |  | > 100 |  | > 100 |  | > 100 |  | > 100
6 | C[C@@H](CS[As](C)C)C(=O)N1CCC[C@H]1C(=O)O | 0.0933 | 3.69 | 0.164 | 1.15 | 0.0888 | 1.28 | 0.113 | 1.2 | 0.708 | 21.8 | 1.79 | 5.32 | 0.468 | 5.88 | 0.606 | 5.75 | 0.359 | 2.33 | 0.152 | 0.436
7 | O=C(NNc1ccccc1)c1ccc(Cl)c(Cl)c1 |  | > 100 |  | > 92.5 |  | > 100 |  | > 100 |  | > 100 |  | > 86.5 |  | 36.2 |  | > 100 |  | > 100 |  | 41.6
8 | CCC[n+]1cc2cc3c(cc2c2c1-c1cc4c(cc1C2)OCO4)OCO3 (tested in a mixture with another compound) | 0.251 | 3.03 | 0.29 | 1.53 | 28.2 | > 100 | 12.1 | 51.3 | 0.783 | 2.49 | 0.47 | 6.37 | 0.53 | 2.35 | 0.267 | 1.61 | 0.679 | 3.02 | 0.371 | 1.6
9 | CC(C)(O)CCc1cccc(C(=O)c2cnn(-c3ccc(F)cc3)c2N)c1 | > 25 | > 25 | > 25 | > 25 | > 25 | > 25 | > 25 | > 25 | > 25 | > 25 | > 25 | > 25 | > 25 | > 25 | 8.17 | > 25 | > 25 | > 25 | 13.5 | > 25
10 | Cc1ccc(NC(=S)C#N)c(C)c1 |  | > 100 |  | > 94.9 |  | > 100 |  | > 100 |  | > 100 |  | > 100 |  | > 100 |  | > 100 |  | > 100 |  | > 100
11 | CC(=O)c1ccc2c3c1[C@H]1O[C@H]1c1cccc(c1-3)[C@@H]1O[C@H]21 |  | > 32.6 |  | 3.07 |  | 4.12 |  | 3.79 |  | 5.96 |  | 18 | 3.79 | > 100 |  | 6.55 |  | 3.42 |  | 5.39
12 | C#CCOc1cccc(Nc2ncnc3cc(NC(=O)C=C)ccc23)c1 | 4.56 | 69.1 | 17.6 | > 100 | 3.44 | > 100 | 4.74 | > 100 | 23 | > 100 | 14.6 | > 100 | 20.9 | > 100 | 3.98 | > 100 | 26.6 | > 100 | 17.3 | > 100
13 | O=C1c2ccn(CCCNC(CO)(CO)CO)c2C(=O)c2c1c(O)c1ccccc1c2O | 2.54 | > 37.2 | 22.7 | 74.3 | 14.2 | 28.6 | 13.6 | 28.2 | 51.3 | > 100 | 15 | > 49.8 | 23.1 | 68.8 | 16.4 | 50.9 | 15.2 | 30.5 |  | 0.588
14 | C[C@@]1(C(=O)O)CCC[C@]2(C)C1CC[C@]13C[C@@](O)(CO)[C@](O)(CC[C@]12O)C3 (stereo not given in full) | > 100 | > 100 | > 100 | > 100 | > 100 | > 100 | > 100 | > 100 | > 100 | > 100 | > 100 | > 100 | > 100 | > 100 | > 100 | > 100 | > 100 | > 100 | > 100 | > 100
15 | O=C(NCCCl)Nc1ccccc1 |  | > 100 |  | > 100 |  | > 100 |  | > 100 |  | > 100 |  | > 100 |  | > 100 |  | > 100 |  | > 100 |  | > 100
16 | O=C1C(Cl)=C(Cl)C(=O)N1c1ccc(F)cc1 |  | 34.8 |  | 32.5 |  | 34 |  | 36.3 |  | 37.1 |  | > 100 |  | > 72.8 |  | 51.2 |  | 36.9 |  | > 67.9
17 | COc1cc2c(NC3CCN(C(C)C)CC3)nc(C3CCCCC3)nc2cc1OCCCN1CCCC1 | 3.38 | 11.6 | 1.8 | 3.42 | 9.82 | 23.9 | 10.4 | 23 | 1.72 | 3.24 | 2.52 | 6.55 | 2.18 | 4.59 | 2.54 | 7.08 | 10.8 | 25.5 | 1.68 | 3.11
18 | NC(Cc1cccnn1)C(=O)O (stereo not given) |  | > 100 |  | > 100 |  | > 100 |  | > 100 |  | > 100 |  | > 100 |  | > 100 |  | > 100 |  | > 100 |  | > 100
19 | CN(C)c1cc2c(Nc3ccc4c(cnn4Cc4ccccc4)c3)ncnc2cn1 | 9.47 | > 25 | 12.9 | > 25 | 9.6 | > 25 | 2.1 | > 25 | 20 | > 25 | 7.58 | > 23.1 | 7.5 | 20.9 | 3.38 | > 20.5 | 9.52 | > 25 | 7.61 | > 20.5
20 | CSc1nnc(-c2cc3c([nH]c4ccccc43)c(-c3cccc(O)c3)n2)n1-c1ccc(C)cc1 | 3.65 | > 100 | 1.88 | 5.4 | 3.55 | > 100 | 2.11 | 6.06 | 2.23 | 7.74 | 2.59 | 9.62 | 2.11 | 6.61 | 1.95 | 8.16 | 5.76 | > 100 | 2.38 | 11.5
21 | CC(=O)O[C@@H]1C2=C(C)C3(CC3)[C@@](C)(O)C(=O)C2=C[C@@]1(C)CO | 1.53 | > 100 | 0.893 | 2.5 | 0.423 | 10.1 | 0.484 | 2.33 | 1.98 | 4.52 | 0.406 | 9.87 | 1.86 | 4.43 | 0.635 | 7.03 | 0.473 | 2.66 | 1.73 | 3.2
22 | C=C1C(=O)O[C@@H]2CC(CO)=C([C@@H](C)CCCO)[C@@H](OC(=O)/C(C)=C\C)[C@H]12 |  | 33.4 |  | 32.5 |  | 31.3 |  | 39.8 |  | 29.3 |  | > 100 |  | 70.5 |  | 49.7 |  | 38.8 |  | 34.6
23 | CCCCSc1nc(N)c2cn[nH]c2n1 | 26.3 | > 78 | 24.6 | 42.9 | 32.9 | > 100 | 24.8 | > 76.1 | 20.3 | 40.3 | 20.8 | 38.8 | 22.2 | > 64.6 | 8.28 | 52.6 | 13.8 | 30.9 | 15.5 | 33.2
24 | CC(C)(C)C(=O)c1c(C(F)(F)F)n([O-])c2cc(Cl)c(Cl)cc2[n+]1=O | 0.437 | 0.987 | 1.34 | 2.73 | 0.257 | 0.652 | 0.389 | 0.782 | 0.618 | 1.6 | 0.505 | 0.973 | 0.903 | 2.28 | 0.613 | 1.29 | 0.849 | 2.3 | 0.277 | 1.1
25 | OC(CN1CCCC2CCCCC21)c1cc2ccccc2c2ccccc12 (stereo not given) | 1.81 | 4.79 | 1.53 | 3.45 | 2.15 | 9.23 | 3 | 10.1 | 2.06 | 4.36 | 1.45 | 3.21 | 1.67 | 3.31 | 2.16 | 5.71 | 2.14 | 7.14 | 1.67 | 3.05
26 | Cc1ccnc2c(NC(C)CCCN)cc(O)c(O)c12 (stereo not given) | 6.61 | 34.5 | 19.4 | 52.9 | 27 | > 100 | > 100 | > 100 | 62.5 | > 100 | 35.2 | > 100 | > 100 | > 100 | 11.6 | 43.7 | 3.98 | 27.3 | 17.6 | 42.1
27 | CC(C)c1[nH]nc2c(NCc3ccc(-c4ccccn4)cc3)nc(SCCN(C)C)nc12 | < 0.0178 | 0.202 | 0.0986 | 0.642 | 0.0872 | 10.9 | 0.0864 | 4.96 | 0.0226 | 0.21 | 0.0799 | 1.92 | 0.0798 | 0.269 | 0.0319 | 2.69 | 0.0646 | 0.598 | 0.153 | 0.552
28 | O=C(NCc1ccco1)C1CCN(S(=O)(=O)c2ccc(Cl)cc2)CC1 | 74.1 | > 100 | > 100 | > 100 | 39.6 | > 100 | > 100 | > 100 | > 100 | > 100 | 81.6 | > 100 | > 100 | > 100 | > 100 | > 100 | > 100 | > 100 | 53.5 | > 100
